These are literature values, as cited in US20230058142A1, “LIQUID PHARMACEUTICAL COMPOSITION COMPRISING CYTISINE” (priority 2019, published 2023).

This data set deals with nicotinic α4β2 receptors (Homo sapiens, UniProt P17787+P43681). The settings on record: read-out: Ki, affinity for nicotinic α4β2 receptors.

Each structure is given as a SMILES string.

Chain of nicotinic α4β2 receptors (P43681 29-627 limits assumed): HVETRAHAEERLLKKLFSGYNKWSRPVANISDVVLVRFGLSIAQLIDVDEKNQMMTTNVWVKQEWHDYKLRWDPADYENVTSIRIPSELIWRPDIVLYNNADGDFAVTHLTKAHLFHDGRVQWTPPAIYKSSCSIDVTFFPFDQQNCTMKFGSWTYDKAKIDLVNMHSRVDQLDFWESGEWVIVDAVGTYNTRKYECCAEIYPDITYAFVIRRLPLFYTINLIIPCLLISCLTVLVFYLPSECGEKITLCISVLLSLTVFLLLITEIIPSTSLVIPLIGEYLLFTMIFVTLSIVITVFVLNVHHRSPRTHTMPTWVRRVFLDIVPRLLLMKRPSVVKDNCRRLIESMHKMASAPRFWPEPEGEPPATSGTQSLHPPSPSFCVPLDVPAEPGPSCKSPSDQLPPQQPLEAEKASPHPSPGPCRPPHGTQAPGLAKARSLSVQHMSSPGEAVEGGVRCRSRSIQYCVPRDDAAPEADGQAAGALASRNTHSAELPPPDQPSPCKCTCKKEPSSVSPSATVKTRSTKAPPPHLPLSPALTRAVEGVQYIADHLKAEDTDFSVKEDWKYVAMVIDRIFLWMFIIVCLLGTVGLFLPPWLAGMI
Chain of nicotinic α4β2 receptors (P17787 26-502): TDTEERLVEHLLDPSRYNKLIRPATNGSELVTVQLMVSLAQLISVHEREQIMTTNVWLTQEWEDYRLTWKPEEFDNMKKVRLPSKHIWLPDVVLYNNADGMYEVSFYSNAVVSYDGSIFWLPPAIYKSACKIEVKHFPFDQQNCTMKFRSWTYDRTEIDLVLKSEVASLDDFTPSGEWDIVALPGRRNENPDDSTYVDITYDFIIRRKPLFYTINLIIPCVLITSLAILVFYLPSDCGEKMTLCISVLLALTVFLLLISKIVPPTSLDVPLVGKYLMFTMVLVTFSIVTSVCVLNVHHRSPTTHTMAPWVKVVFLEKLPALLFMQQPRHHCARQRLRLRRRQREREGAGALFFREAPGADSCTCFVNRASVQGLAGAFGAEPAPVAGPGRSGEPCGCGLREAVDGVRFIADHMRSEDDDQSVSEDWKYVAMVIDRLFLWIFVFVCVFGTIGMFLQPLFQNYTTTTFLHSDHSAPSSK

The term Ki denotes the equilibrium dissociation constant of an inhibitor or competing ligand from its target. Take `O=c1cccc2n1C[C@@H]1CNC[C@H]2C1` [Cytisine, (1R-cis)-1,2,3,4,5,6-hexahydro-1,5-methano-8H-pyrido[1,2-a][1,5]diazocin-8-one]: the Ki was 450 nM.
